Columns and labels:
[1] = test system: α-isomaltosylglucosaccharide-forming enzyme; assay: Specificity of transfer acceptor (C11 enzyme); format: biochemical, Bacillus globisporus C11 strain; design: key: −: no saccharide-transferred product was detected through transferring reaction to acceptor; ±: a saccharide-transferred product was detected in an amount of less than one percent through transfer reaction to acceptor; +: a saccharide-transferred product was detected in an amount of at least one percent but less than ten percent through transferring reaction to acceptor; ++: a saccharide-transferred product was detected in an amount of at least ten percent through transferring reaction to acceptor; details: acceptor 1.6%, PINE-DEX #100 donor 4%, one unit/g donor, 30° C., pH 6.0, 24 hours
Description: (§1) A variety of saccharides were tested whether they could be used as transferring-acceptors for the α-isomaltosylglucosaccharide-forming enzyme. A solution of D-glucose, D-xylose, L-xylose, D-galactose, D-fructose, D-mannose, D-arabinose, D-fucose, L-sorbose, L-rhamnose, methyl-α-glucopyranoside, methyl-β-glucopyranoside, N-acetyl-glucosamine, sorbitol, α,α-trehalose, isomaltose, isomaltotriose, cellobiose, gentibiose, maltitol, lactose, sucrose, α-cyclodextrin, β-cyclodextrin, or γ-cyclodextrin was prepared. […] The reaction mixtures after the enzymatic reactions were analyzed on gas chromatography (abbreviated as “GLC” hereinafter) for monosaccharides and disaccharides as acceptors, and on HPLC for trisaccharides and higher saccharides as acceptors to confirm whether these saccharides could be used as their transfer acceptors. In the case of performing GLC, the following apparatuses and conditions were used: […] In the case of HPLC analysis, the apparatuses and conditions used were: HPLC apparatus, “CCPD” commercialized by Tosoh Corporation, Tokyo, Japan; column, “ODS-AQ-303” commercialized by YMC Co., Ltd., Tokyo, Japan; eluent, water at a flow rate of 0.5 ml/min; and detection, a differential refractometer.

[2] = test system: α-isomaltosylglucosaccharide-forming enzyme; assay: Specificity of transfer acceptor (C9 enzyme); format: biochemical, Bacillus globisporus C9 strain; design: key: −: no saccharide-transferred product was detected through transferring reaction to acceptor; ±: a saccharide-transferred product was detected in an amount of less than one percent through transfer reaction to acceptor; +: a saccharide-transferred product was detected in an amount of at least one percent but less than ten percent through transferring reaction to acceptor; ++: a saccharide-transferred product was detected in an amount of at least ten percent through transferring reaction to acceptor; details: acceptor 1.6%, PINE-DEX #100 donor 4%, one unit/g donor, 30° C., pH 6.0, 24 hours
Description: as §1

SMILES | Product of saccharide transferring reaction, Enzyme of C11 strain [1] | Product of saccharide transferring reaction, Enzyme of C9 strain [2]
O=C[C@H](O)[C@@H](O)[C@H](O[C@@H]1O[C@H](CO)[C@@H](O)[C@H](O)[C@H]1O)[C@H](O)CO [Cellobiose, cellobiose] | ++ (a saccharide-transferred product was detected in an amount of at least ten percent through transferring reaction to acceptor) | ++ (a saccharide-transferred product was detected in an amount of at least ten percent through transferring reaction to acceptor)
O=C[C@@H](O)[C@H](O)[C@H](O)CO [D-Arabinose, D-arabinose] | ± (a saccharide-transferred product was detected in an amount of less than one percent through transfer reaction to acceptor) | ± (a saccharide-transferred product was detected in an amount of less than one percent through transfer reaction to acceptor)
O=C(CO)[C@@H](O)[C@H](O)[C@H](O)CO [D-Fructose, D-fructose] | + (a saccharide-transferred product was detected in an amount of at least one percent but less than ten percent through transferring reaction to acceptor) | + (a saccharide-transferred product was detected in an amount of at least one percent but less than ten percent through transferring reaction to acceptor)
C[C@@H](O)[C@H](O)[C@H](O)[C@@H](O)C=O [D-Fucose, D-fucose] | + (a saccharide-transferred product was detected in an amount of at least one percent but less than ten percent through transferring reaction to acceptor) | + (a saccharide-transferred product was detected in an amount of at least one percent but less than ten percent through transferring reaction to acceptor)
O=C[C@H](O)[C@@H](O)[C@@H](O)[C@H](O)CO [D-Galactose, D-galactose] | + (a saccharide-transferred product was detected in an amount of at least one percent but less than ten percent through transferring reaction to acceptor) | + (a saccharide-transferred product was detected in an amount of at least one percent but less than ten percent through transferring reaction to acceptor)
O=C[C@@H](O)[C@@H](O)[C@H](O)[C@H](O)CO [D-Mannose, D-mannose] | − | −
O=C[C@H](O)[C@@H](O)[C@H](O)CO [D-Xylose, D-xylose] | ++ (a saccharide-transferred product was detected in an amount of at least ten percent through transferring reaction to acceptor) | ++ (a saccharide-transferred product was detected in an amount of at least ten percent through transferring reaction to acceptor)
OC[C@H]1O[C@@H](OC[C@H]2OC(O)[C@H](O)[C@@H](O)[C@@H]2O)[C@H](O)[C@@H](O)[C@@H]1O (stereo partly drawn) [Gentibiose, gentibiose] | ++ (a saccharide-transferred product was detected in an amount of at least ten percent through transferring reaction to acceptor) | ++ (a saccharide-transferred product was detected in an amount of at least ten percent through transferring reaction to acceptor)
OC[C@H]1O[C@H](OC[C@H]2OC(O)[C@H](O)[C@@H](O)[C@@H]2O)[C@H](O)[C@@H](O)[C@@H]1O (stereo partly drawn) [Isomaltose, isomaltose] | ++ (a saccharide-transferred product was detected in an amount of at least ten percent through transferring reaction to acceptor) | ++ (a saccharide-transferred product was detected in an amount of at least ten percent through transferring reaction to acceptor)
OC[C@H]1O[C@H](OC[C@H]2O[C@H](OC[C@H]3OC(O)[C@H](O)[C@@H](O)[C@@H]3O)[C@H](O)[C@@H](O)[C@@H]2O)[C@H](O)[C@@H](O)[C@@H]1O (stereo partly drawn) [Isomaltotriose, isomaltotriose] | ++ (a saccharide-transferred product was detected in an amount of at least ten percent through transferring reaction to acceptor) | ++ (a saccharide-transferred product was detected in an amount of at least ten percent through transferring reaction to acceptor)
C[C@H](O)[C@H](O)[C@@H](O)[C@@H](O)C=O [L-Rhamnose, L-rhamnose] | − | −
O=C(CO)[C@@H](O)[C@H](O)[C@@H](O)CO [L-Sorbose, L-sorbose] | + (a saccharide-transferred product was detected in an amount of at least one percent but less than ten percent through transferring reaction to acceptor) | + (a saccharide-transferred product was detected in an amount of at least one percent but less than ten percent through transferring reaction to acceptor)
O=C[C@@H](O)[C@H](O)[C@@H](O)CO [L-Xylose, L-xylose] | ++ (a saccharide-transferred product was detected in an amount of at least ten percent through transferring reaction to acceptor) | ++ (a saccharide-transferred product was detected in an amount of at least ten percent through transferring reaction to acceptor)
OC[C@H]1O[C@@H](O[C@H]2[C@H](O)[C@@H](O)C(O)O[C@@H]2CO)[C@H](O)[C@@H](O)[C@H]1O (stereo partly drawn) [Lactose, lactose] | ++ (a saccharide-transferred product was detected in an amount of at least ten percent through transferring reaction to acceptor) | ++ (a saccharide-transferred product was detected in an amount of at least ten percent through transferring reaction to acceptor)
CO[C@H]1O[C@H](CO)[C@@H](O)[C@H](O)[C@H]1O [Methyl-α-glucopyranoside, methyl-α-glucopyranoside] | ++ (a saccharide-transferred product was detected in an amount of at least ten percent through transferring reaction to acceptor) | ++ (a saccharide-transferred product was detected in an amount of at least ten percent through transferring reaction to acceptor)
CO[C@@H]1O[C@H](CO)[C@@H](O)[C@H](O)[C@H]1O [Methyl-β-glucopyranoside, methyl-β-glucopyranoside] | ++ (a saccharide-transferred product was detected in an amount of at least ten percent through transferring reaction to acceptor) | ++ (a saccharide-transferred product was detected in an amount of at least ten percent through transferring reaction to acceptor)
CC(=O)N[C@H]1C(O)O[C@H](CO)[C@@H](O)[C@@H]1O (stereo partly drawn) [N-Acetyl-glucosamine, N-acetyl-glucosamine] | + (a saccharide-transferred product was detected in an amount of at least one percent but less than ten percent through transferring reaction to acceptor) | + (a saccharide-transferred product was detected in an amount of at least one percent but less than ten percent through transferring reaction to acceptor)
OC[C@@H](O)[C@@H](O)[C@H](O)[C@@H](O)CO [Sorbitol, sorbitol] | − | −

— patent US7186701B2, “Dehydrating agent and method for dehydrating moist article using the agent and dehydrated article obtained by the method” (Kabushiki Kaisha Hayashibara Seibutsu Kagaku Kenkyujo, priority 2001, dated 2007)
